{
  "source": "patent US20250255847A1",
  "about": "“[…]s: Novel Drugs for Triple Negative Breast Cancer” (SIMMARON RSEARCH INC, priority 2024, published 2025)",
  "key": {"[1]": {"test_system": "MDA-MB-468 TNBC cells", "assay": "Annexin V / propidium iodide dual labeling in MDA-MB-468 cells", "format": "cell-based, human", "settings": "24 hrs; for membrane labeling of Annexin V and nuclear staining of PI: increasing doses", "method": "FIG. 11 illustrates an embodiment of the present invention and illustrates SIM-1 and SIM-2 induced apoptosis in MDA-MB-468 TNBC cells, but not HMEC control cells. MDA-MB-468 cells were treated with increasing doses of (A) SIM-1 and (B) SIM-2 for 48 hrs followed by lactate dehydrogenase (LDH) release assay in the supernatants. The result was offset with cell-bound LDH and presented as a percent of DMSO control as discussed under method section. Half-maximal cytotoxicity or CT50 analyses were performed plotting maximum response as an index of increasing doses of (C) SIM-1 and (D) SIM-2. AnnexinV (green) and propidium iodide (red) dual-labeling were performed to evaluate apoptotic response in MDA-MB-468 cells once treated with increasing doses of (E) SIM-1 and (F) SIM-2 for 24 hrs. Nuclei were stained with DAPI. TUNEL assay was performed in MDA-MB-468 cells after treatment with 25 nM of (G) SIM-1. Brown-colored TUNEL bodies were visualized at cresyl violet-stained blue nuclei. (H) The number of TUNEL bodies were counted as a percent of 100 cresyl violet-stained blue cells. Ten independent images were counted for the quantification study. Similarly, SIM-2 was assessed for (I) TUNEL and (J) subsequent quantification analyses. One-way ANOVA was performed to test the significance of mean between groups at **p<0.01 and ****p<0.0001. (K) LDH release assay was performed in non-tumor origin human mammary epithelial cells (HMEC) once treated with increasing doses of SIM-1 and SIM-2 for 48 hrs. Ns=no significance. (L) Annexin V (green) and propidium iodide (red) staining was performed in 25 nM SIM-1- and SIM-2-treated HMEC cells. Nuclei were stained with DAPI. Results are confirmed after three different experiments.\nAnnexin V/PI Dual Staining Protocol. Annexin V/PI Dual Staining was performed as per manufacturer's instruction (Cat #: 2752665; Vendor: Thermo Fisher Scientific). Chamber slides of MDA-MB-468 cells in serum-free media were treated with SIMPYRA-1 and SIMPYRA-2 at doses of 2 nM, 5 nM, 10 nM, […] 50 nM for 24 hours at 37° C. Each well was washed with 1×PBS, then treated with 1× annexin-binding buffer, 100 ug/mL PI solution, and Annexin V solution. Chamber slides were incubated in the dark at room temperature for 2 hours. Each well was washed twice with 1×PBS and once with 1:500 dilution of DAPI in 1×PBS. Cells were imaged using CaptaVision+™ Software.\nThis example provides a representative experiment that studies if SIM-1 and SIM-2 promoted the death of TNBC cells. […] During apoptosis, phosphatidyl serine of the plasma membrane flips from the inner to the outer membrane which can be detected by Annexin V labeling, whereas PI stains the nucleus of a cell with compromised integrity of the plasma membrane. […]"}, "[2]": {"assay": "Health vitals and open-field test in PDX mice", "format": "in vivo, mouse", "settings": "end of study, 2 mg/Kg Bwt i.p.", "method": "FIG. 12 illustrates an embodiment of the present invention and illustrates SIM-1 and SIM-2 arrest the growth of human TNBC tumor in patient-derived xenograft mouse model. TM00096 tumor (origin of invasive ductal carcinoma isolated from a person) was seeded in the flank of 6-week-old female SCID mice by Jackson Laboratory and then shipped to our research facility. Once the tumor reached ˜4 mm in size (˜30 mm^3 in volume), n=6 mice/group were treated by vehicle (5% DMSO), SIM-1 and SIM-2 (2 mg/Kg Bwt mixed with 5% DMSO) via i.p. for 2 weeks in every alternate day. The tumor size was monitored accordingly during the treatment and two more weeks after the last dose to evaluate the recurrence. […] (B) Tumor size was measured every alternate day for 4 weeks by a digital caliper and then the volume was calculated using the formula 0.5*Length*Width^2. […] (D) Body weight was recorded during the course of the study to monitor the adverse metabolic outcome due to the drug administration. (E) The heart rate was monitored at 0-, 7-, 14-, and 28-days post SIM-1 and SIM-2 treatments by MouseStat Jr console (Kent Scientific) as per the manufacturer's instruction. (F) At the end of the study, the gross motor performance was recorded for n=6 (i) vehicle, (ii) SIM-1-, and (iii) SIM-2-treated mice. […]"}},
  "data": [
    {"molecule": "O=C(O)CCC(=O)NCc1csc2ccc(Cl)cc12", "note": "[SIM-1, 4-[(5-chloro-1-benzothiophen-3-yl)methylamino]-4-oxobutanoic acid]", "values": [
      {"measurement": "concentration of maximum Annexin V / PI labeling", "setting": "[1]", "result": 25, "unit": "nM"},
      {"measurement": "membrane labeling of Annexin V and nuclear staining of PI", "setting": "[1]", "result": "dose-dependently increased"},
      {"measurement": "open-field test: gross movement, total distance traveled, average speed", "setting": "[2]", "result": "did not show any adverse outcome"}
    ]},
    {"molecule": "CCOC(=O)c1c(NC(C)=O)sc2c(Cl)c(/C=N/O)ccc12", "note": "[SIM-2, ethyl 2-acetamido-7-chloro-6-(hydroxyiminomethyl)-1-benzothiophene-3-carboxylate]", "values": [
      {"measurement": "concentration of maximum Annexin V / PI labeling", "setting": "[1]", "result": 25, "unit": "nM"},
      {"measurement": "membrane labeling of Annexin V and nuclear staining of PI", "setting": "[1]", "result": "dose-dependently increased"},
      {"measurement": "open-field test: gross movement, total distance traveled, average speed", "setting": "[2]", "result": "did not show any adverse outcome"}
    ]}
  ]
}
